Consider one molecule from paper PMC3626541, “A first in human, safety, pharmacokinetics, and clinical activity phase I study of once weekly administration of the Hsp90 inhibitor ganetespib (STA-9090) in patients with solid malignancies” (BMC Cancer, 2013).

Entries after “also recorded” stand apart in the source; their conditions may differ.

Data set [1] relates to patients with advanced solid tumors. In words: Dose escalation: dose-limiting toxicity, MTD and RP2D. It is filed as in vivo, human. The protocol: Ganetespib was administered over a 1-hour infusion, once weekly for 3 weeks of a 4-week cycle. Intra-patient dose escalation was allowed to dose levels shown to be safe and tolerable. The starting dose (7 mg/m^2) was selected based on a conservative estimate using the highest non-severely toxic dose established in a once-weekly, 4-week repeat dose study in cynomolgus monkeys. […] Each cohort consisted of 3 patients, with expansion to 6 patients if 1 of the 3 initial patients experienced a DLT, which was defined as: Grade 4 thrombocytopenia (or Grade 3 with hemorrhage); Grade 4 neutropenia lasting > 7 days (or Grade 3 with fever); Grade 4 anemia; ≥ Grade 3 non-hematologic toxicity (except alopecia); and ≥ Grade 3 hypersensitivity despite premedication. Doses were escalated after all patients in the preceding dose cohort had completed Cycle 1. […] The RP2D was defined as the dose of ganetespib below which 2 of 3 or 2 of 6 patients experienced a DLT.

The next data set concerns HSP70 protein in plasma. Description: HSP70 protein in plasma by ELISA. It is filed as in vivo, human. The conditions noted are these: for Peak circulating plasma HSP70 level: NSCLC patient, 150 mg/m^2. How it is done:
Pre-dose blood samples on Days 1, 8 and 15 of Cycle 1 and 2 were collected for assessment of HSP70 protein in plasma by ELISA. Assays were performed using high sensitivity HSP70 ELISA kits (Assay Design, Ann Arbor, Michigan), with a sensitivity limit as low as 90 pg/ml, according to manufacturers’ instructions. Results were detected using a microplate ELISA reader at 450 nm with a correction wavelength of 540 nm. Concentrations of HSP70 were normalized to the total protein in each plasma sample.
For orientation: In an ELISA, binding on a coated surface is turned into a signal by an enzyme label.

Data set [2] relates to patients with advanced solid tumors. Set-up: method as in unpublished observation. Particulars: over 400 patients treated in other studies; ref unpublished observation; cited from earlier work.

In the case of `CC(C)c1cc(-c2n[nH]c(=O)n2-c2ccc3c(ccn3C)c2)c(O)cc1O` [Ganetespib, 5-[2,4-dihydroxy-5-(1 methyl-ethyl)phenyl]-2,4 dihydro-4-(1-methyl-1H indol-5 yl)-3H-1,2,4 triazole-3-one], in data set [1] (150 mg/m^2 dose level), the “DLT: Grade 3 elevated serum amylase” value is “one Grade 3 amylase elevation; also recorded: one patient”. Also, the “DLT: Grade 3 and 4 asthenia” value in data set [1] (259 mg/m^2 dose level) is “one Grade 3 and one Grade 4 asthenia; also recorded: two patients”. Also, in data set [1] (259 mg/m^2 dose level, expanded to 6 patients), the “DLT: Grade 3 diarrhea” value is “one Grade 3 diarrhea; also recorded: one additional patient”. For the same molecule, the “Patients experiencing DLT” value in data set [1] (7–114 mg/m^2 cohort) was “None of the patients”. For the same molecule, in data set [1] (1 hour IV infusion once weekly for 3 weeks of a 4-week cycle), the “Maximum tolerated dose (MTD)” value is recorded as 216 mg/m^2. In data set [1] (human, in vivo, iv, 4 weeks), the “Recommended phase II dose (RP2D)” value is 200 mg/m^2. The “Grade 3 fatigue (would have been dose-limiting in dose-escalation phase)” value in data set [1] (in vivo) is on record as “One patient”. Also, the “Peak circulating plasma HSP70 level” value in the data set with HSP70 protein in plasma (Cycle 1) is 750 ng/g; in the data set with HSP70 protein in plasma (Cycle 2), 730 ng/g. Further, the “Hsp70 plasma protein levels versus baseline” value with HSP70 protein in plasma (Days 8 and 15, pre-dose, majority of patients) is recorded as “significantly elevated”. The “Dose levels at which Hsp70 induction saturates” value with HSP70 protein in plasma (mean maximum increase of HSP70 in Cycle 1) is reported as “above 180 mg/m^2”. In addition, the “Persistence of elevated HSP70 protein plasma levels following drug exposure” value in the data set on HSP70 protein in plasma (post treatment) is “over a week; also recorded: at least a week”. Also, the “Incidence of treatment related visual changes” value in data set [2] is less than 3%.
